From patent US20110287470A1, “CELL CULTURE METHOD TO FORM AGGREGATES” (priority 2008, published 2011) come the findings set out here.

The experiment concerns cardiac tissue generated from cardiomyocytes derived from human ESCs. Put plainly: Multi-electrode array electrophysiological recordings of CardioSpot cardiac tissue. Type of experiment: cell-based. The note with it: for repolarising potential (delay measured from the first signal): control 140 ms, FIG. 8. As for the experimental part: CardioSpot made using primary or stem cell derived cardiomyocytes are placed onto the porous MEAs. Electrophysiological recordings were performed either through the supporting membrane or from under the membrane in order to get a direct contact of the tissues with recording electrodes. Control recording were performed using the culture medium as well a the solution used for reference molecules ([…], and lidocaine) Pharmacological experiments were carried out using reference compounds to characterise and validate the cardiac tissue generated from cardiomyocytes derived from human ESCs and engineered using the method of invention.

Structures are written as SMILES.

Take `Cc1cccc(CCN2CCC(C(=O)c3ccc(NS(C)(=O)=O)cc3)CC2)n1` [E4031]: the “repolarising potential (delay measured from the first signal)” value by setting is: (30 nM E4031, after 5 min) 155 ms; (30 nM E4031, after 15 min) 173 ms.
Regarding `CCN(CC)CC(=O)Nc1c(C)cccc1C` [lidocaine], the “decrease of the amplitude of the electrophysiological signals” value (30 uM lidocaine, after 6 minutes, FIG. 7) amounted to 50%. Moreover, the “amplitude of the first signal (predominantly dependent on sodium channel opening)” value (lidocaine, within few minutes, FIG. 7) is on record as “dramatic decrease of the amplitude”.
